Assay results: US20030125234A1, “Alteration of protein stability” (priority 2001, published 2003)
“Also recorded” adds a separate entry of the source. Residues, ends and D or L forms follow the SMILES beside them.

Legend:
Assay type in all cases: biochemical
Bovine insulin = target: T1, Bovine insulin (Bos taurus, UniProt P01317); test: Insulin aggregation (turbidity at 360 nm) induced by DTT; details: for inhibition index: Insulin 0.25 mg/mL, 25° C., DTT, compound 100×, standard deviation in parenthesis
T1 construct: purchased Sigma, St. Louis, Mo., USA
How it was run: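 Bovine insulin was dissolved in pH 7.0 PBS (50 mM sodium biphosphate, 100 mM sodium chloride) at 0.25 mg/mL (4.39E-5 M). Test compounds were added, then aggregation was induced with 20 μL of 1 M DTT […]. Turbidity at 360 nm was followed for 1 hour at 25° C. and compared with insulin lacking the compound.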

[1] = target: T2, human apolactoferrin (HLF) (Homo sapiens, UniProt P02788); test: HLF aggregation (turbidity at 360 nm) induced by DTT; details: for inhibition index: HLF 0.4 mg/mL, 43° C., DTT, head 10,000×, standard deviation in parenthesis
T2 construct: purchased Sigma
How it was run: (§1)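 OD360 was followed for 1 h against protein without test compound. pST (1.27 mg/mL, pH 6.1 phosphate) at 60° C with 20 mg/mL PEG 8000; lysozyme (0.4 mg/mL, pH 8.2 Tris/EDTA) at 25° C and HLF (0.4 mg/mL, pH 7.4 HEPES) at 43° C with 1.27E-4 M DTT; ADH (1 mg/mL) 37° C, 7.76E-5 M Cu(OP)2.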

[2] = target: T3, porcine heart citrate synthase (CS) (Sus scrofa, UniProt P00889); test: Citrate synthase thermal aggregation (turbidity at 360 nm); details: for inhibition index: CS 96 μg/mL, 45° C., standard deviation in parenthesis
T3 construct: porcine heart citrate synthase (CS); from tissue; host or cells: porcine heart
T3 sequence (P00889 28-464): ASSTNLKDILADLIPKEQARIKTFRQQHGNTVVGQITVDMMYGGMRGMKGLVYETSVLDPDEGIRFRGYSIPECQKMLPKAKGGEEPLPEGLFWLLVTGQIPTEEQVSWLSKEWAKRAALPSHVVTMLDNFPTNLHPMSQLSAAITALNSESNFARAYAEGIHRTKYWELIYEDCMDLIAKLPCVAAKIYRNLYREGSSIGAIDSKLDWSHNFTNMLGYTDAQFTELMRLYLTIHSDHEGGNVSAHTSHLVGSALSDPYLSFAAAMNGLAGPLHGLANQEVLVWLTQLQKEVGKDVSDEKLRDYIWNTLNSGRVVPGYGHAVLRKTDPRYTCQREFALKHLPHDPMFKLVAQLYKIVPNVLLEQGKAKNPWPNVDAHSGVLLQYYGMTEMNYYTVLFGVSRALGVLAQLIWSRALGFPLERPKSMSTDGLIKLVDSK
How it was run: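 Heat-induced aggregation followed as OD360 for 1 h, cycled every 30 s: citrate synthase 96 μg/mL in HEPES/KCl/(NH4)2SO4 buffer pH 7.8 at 45° C; FGF-1 50 μg/mL in phosphate/NaCl pH 7.2 at 50° C. Rate taken as maximum slope of OD versus time, compared with protein without additive.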

[3] = target: T4, yeast alcohol dehydrogenase (ADH) (Saccharomyces cerevisiae, UniProt P00330); test: ADH oxidation-induced aggregation (turbidity at 360 nm), Cu(OP)2; details: for inhibition index: ADH 1 mg/mL, 37° C., Cu(OP)2; for inhibition of ADH aggregation, in words: FIG. 1
T4 construct: purchased Sigma
T4 sequence (P00330 2-348 limits assumed): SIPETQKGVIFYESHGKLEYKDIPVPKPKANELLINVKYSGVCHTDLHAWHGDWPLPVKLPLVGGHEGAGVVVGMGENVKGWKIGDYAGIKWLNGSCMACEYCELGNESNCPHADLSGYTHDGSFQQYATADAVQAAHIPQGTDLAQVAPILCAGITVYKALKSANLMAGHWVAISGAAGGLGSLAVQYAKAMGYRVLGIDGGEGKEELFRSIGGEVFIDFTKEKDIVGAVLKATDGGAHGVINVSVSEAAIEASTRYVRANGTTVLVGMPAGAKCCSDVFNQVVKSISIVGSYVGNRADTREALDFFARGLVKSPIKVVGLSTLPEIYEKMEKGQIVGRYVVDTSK
How it was run: as §1

[4] = compound 10,000X molar excess, Infinite = complete inhibition of aggregation over one hour
[5] = compound 1,000X, standard deviation in parenthesis

T1 sequence (P01317 25-54 limits assumed): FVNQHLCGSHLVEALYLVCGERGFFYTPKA
T1 sequence (P01317 85-105 limits assumed): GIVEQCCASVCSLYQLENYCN
T2 sequence (P02788 20-710): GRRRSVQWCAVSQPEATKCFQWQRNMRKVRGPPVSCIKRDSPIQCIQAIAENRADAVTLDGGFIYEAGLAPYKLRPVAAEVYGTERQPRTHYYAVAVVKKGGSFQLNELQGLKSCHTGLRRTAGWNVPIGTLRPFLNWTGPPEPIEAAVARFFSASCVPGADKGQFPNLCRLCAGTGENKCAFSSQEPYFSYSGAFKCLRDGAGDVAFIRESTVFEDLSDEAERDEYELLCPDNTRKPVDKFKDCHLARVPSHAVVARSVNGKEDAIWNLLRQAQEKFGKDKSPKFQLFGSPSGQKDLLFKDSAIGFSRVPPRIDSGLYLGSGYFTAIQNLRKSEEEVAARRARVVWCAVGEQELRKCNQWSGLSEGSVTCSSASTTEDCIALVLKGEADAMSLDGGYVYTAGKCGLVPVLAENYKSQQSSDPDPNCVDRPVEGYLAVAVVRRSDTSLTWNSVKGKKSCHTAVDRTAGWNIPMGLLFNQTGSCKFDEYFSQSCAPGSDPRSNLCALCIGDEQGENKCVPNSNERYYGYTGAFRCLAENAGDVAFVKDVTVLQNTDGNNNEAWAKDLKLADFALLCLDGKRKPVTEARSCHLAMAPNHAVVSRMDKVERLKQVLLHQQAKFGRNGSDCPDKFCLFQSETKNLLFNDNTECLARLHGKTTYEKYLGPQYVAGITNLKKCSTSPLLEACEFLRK

Row | Molecule | inhibition index (Bovine insulin) | inhibition of lactoferrin (HLF) aggregation, in words [1] | inhibition index ([1]; second HLF column) | inhibition index ([2]; compound 10,000X) | inhibition index ([2]; compound 50,000X) | inhibition index [3, 4] | inhibition index ([1]; first HLF column) | inhibition index ([2]; compound 1,000X) | inhibition index [3, 5] | inhibition of ADH aggregation, in words [3] | inhibition of insulin aggregation, in words (Bovine insulin) | inhibition of citrate synthase aggregation, in words [2]
1 | NCCC(=O)O [beta-alanine] | 1.1 (0.1) | effective inhibitors | 24.2 (4.4) | 0.6 (0.1) | 1.9 (0.8) | 2.2 (0.3) | – | – | – | – | – | –
2 | pentaglycine | 1.0 (0.2) | – | 0.5 (0.0) | – | – | Infinite^4 | 979.0 (7.5) | 0.6 (0.2) | 5.8 (3.1) | – | – | –
3 | NCCCCC(=O)O [5-aminovalerate, 5-aminovaleric acid] | 1.2 (0.1) | – | 8.4 (2.6) | 0.7 (0.1) | 1.9 (0.7) | 2.7 (0.9) | – | – | – | – | – | –
4 | O=C(O)CCCCC(=O)O [adipate, adipic acid] | 1.2 (0.7) | – | 113.0 | 1.2 (0.5) | 19.6 (17.1) | 4.9 (0.9) | – | – | – | – | – | –
5 | tetraglycine | 1.5 (0.3) | – | 0.1 | – | – | 5313.1 | 8.3 (9.5) | 1.5 (0.1) | 8.4 (2.7) | – | – | –
6 | NCCCCCN [1,5-diaminopentane] | 1.5 (0.6) | – | 28.8 (13.3) | 0.8 (0.2) | 8.3 (4.5) | 0.9 (0.0) | – | – | – | – | – | –
7 | NCC(=O)O [glycine] | 1.0 (0.3) | – | 1.5 (0.1) | 0.8 (0.2) | – | 54.3 (4.5) | – | – | – | Potent inhibition; also recorded: effective inhibitors | – | –
8 | NCCCCCCCN [1,7-diaminoheptane] | 2.7 (1.0) | – | 11.0 (2.1) | 0.6 (0.2) | 1.7 (0.7) | 0.6 (0.1) | – | – | – | – | weak inhibitions | –
9 | NCCN [ethylenediamine] | 0.9 (0.3) | – | 44.5 (13.9) | 1.8 (0.5) | 18.5 | 202.6 (69.7) | – | – | – | effective inhibitors | – | –
10 | NCCCCN [1,4-diaminobutane] | 1.4 (0.4) | – | 34.5 (13.0) | 0.9 (0.3) | 4.0 (2.3) | 0.8 (0.1) | – | – | – | – | – | –
11 | diglycine | 1.0 (0.2) | – | 10.0 | 0.9 (0.3) | 1.5 (0.2) | 0.7 (0.1) | 7.4 (1.0) | 0.8 (0.1) | 4.0 (0.9) | – | – | Potent inhibitors
12 | Lys-Lys | 1.1 (0.1) | – | 11.2 | 1.6 (0.3) | 86.8 | 2.7 | 13.5 (1.2) | 0.9 (0.1) | 1.4 (0.2) | – | – | –
13 | O=C(O)CCCC(=O)O [glutarate, glutaric acid] | 1.0 (0.2) | – | 49.7 (28.9) | 1.4 (0.5) | 6.5 (0.3) | 1.8 (0.4) | – | – | – | – | – | –
14 | O=C(O)C(=O)O [oxalate, oxalic acid] | 0.9 (0.6)^3 | – | 666.9 | 1.9 (0.5) | 6.2 (3.8) | – | – | – | – | most potent inhibitor; also recorded: effective inhibitors | – | –
15 | NCCCC(=O)O [4-aminobuytrate, 4-aminobutyric acid] | 1.2 (0.3) | – | 9.5 (1.9) | 0.6 (0.1) | 1.2 (0.4) | 2.0 (0.1) | – | – | – | – | – | –
16 | O=C(O)CCCCCCC(=O)O [suberate, suberic acid] | 1.6 (0.3) | – | 95.4 (34.6) | 1.1 (0.2) | 14.1 (2.1) | 15.5 (1.4) | – | – | – | – | – | –
17 | Glu-Glu | 1.0 (0.1) | – | 2.1 | 1.5 (0.1) | 1430.3 | 5.3 (1.2) | 9.8 (0.8) | 0.8 (0.1) | 1.4 (0.2) | – | – | Potent inhibitors
18 | O=C(O)CCCCCC(=O)O [pimelate, pimelic acid] | 1.4 (0.6) | – | 78.9 (68.2) | 1.4 (0.4) | 6.7 (0.1) | 9.0 (1.3) | – | – | – | – | – | –
19 | O=C(O)CCC(=O)O [succinate, succinic acid] | 1.0 (0.3) | – | 33.7 (11.9) | 2.1 (0.5) | 9.6 | 2.7 (0.7) | – | – | – | – | – | –
20 | NCCCCCC(=O)O [6-aminocaproate, 6-aminocaproic acid] | 1.4 (0.2) | – | 7.9 (3.4) | 0.5 (0.1) | 1.5 (0.8) | 3.2 (0.3) | – | – | – | – | – | –
21 | NCCCCCCN [1,6-diaminohexane] | 1.5 (0.3) | – | 18.0 (4.9) | 0.6 (0.2) | 4.8 (1.5) | 0.8 (0.0) | – | – | – | – | – | –
22 | O=C([O-])CC(=O)[O-].[Na+].[Na+] [malonate, sodium malonate] | 1.2 (0.5) | – | 1714.1 | 2.4 (0.5) | 9 | 18.9 (6.6) | – | – | – | – | – | –
23 | NCC(=O)NCC(=O)NCC(=O)O [triglycine] (H-Gly-Gly-Gly-OH) | 1.4 (0.1) | – | 5.7 (4.0) | 0.7 (0.2) | 1.0 | 187.6 (46.1) | 0.2 (0.1) | 1.0 (0.2) | 5.0 (1.4) | – | – | Potent inhibitors
24 | NCCCCCCC(=O)O [7-aminoheptanoate, 7-aminoheptanoic acid] | 2.4 (1.0) | – | 4.7 (0.7) | 0.5 (0.1) | 1.7 (0.4) | 4.9 (0.5) | – | – | – | – | weak inhibitions | –
25 | NCCCN [1,3-diaminopropane] | 1.3 (0.3) | – | 31.5 (12.0) | 0.7 (0.3) | 7.7 | 0.7 (0.1) | – | – | – | – | – | –
